Test results taken from patent US20240124504A1, “AROMATIC HETEROCYCLIC COMPOUND, AND PHARMACEUTICAL COMPOSITION AND APPLICATION THEREOF” (GT APEIRON THERAPEUTICS LIMITED, priority 2020, published 2024).
Read-outs that look alike come from different tables or passages of the source.

Experiments:
Type in all cases: biochemical
[1] = biological target: CDK7/cyclinH/MAT1 complex (Homo sapiens, UniProt P50613); experiment: In-vitro enzymatic inhibitory activity testing, CDK7 inhibition assay (Caliper EZ Reader II); conditions: CDK7/cyclinH/MAT1 6 nM, 180 min at 27° C.
Sequence of CDK7/cyclinH/MAT1 complex (P50613 whole entry, species assumed): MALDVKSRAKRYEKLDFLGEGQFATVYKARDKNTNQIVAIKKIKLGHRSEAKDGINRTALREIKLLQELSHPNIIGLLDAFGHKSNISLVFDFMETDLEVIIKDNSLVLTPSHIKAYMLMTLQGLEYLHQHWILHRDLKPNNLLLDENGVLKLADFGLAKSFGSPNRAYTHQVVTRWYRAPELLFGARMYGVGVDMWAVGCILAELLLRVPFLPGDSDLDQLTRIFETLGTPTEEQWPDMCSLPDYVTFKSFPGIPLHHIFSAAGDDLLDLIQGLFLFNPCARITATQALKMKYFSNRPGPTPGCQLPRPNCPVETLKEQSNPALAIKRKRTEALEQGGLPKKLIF
Sequence of CDK7/cyclinH/MAT1 complex (P51946 whole entry partner, species assumed): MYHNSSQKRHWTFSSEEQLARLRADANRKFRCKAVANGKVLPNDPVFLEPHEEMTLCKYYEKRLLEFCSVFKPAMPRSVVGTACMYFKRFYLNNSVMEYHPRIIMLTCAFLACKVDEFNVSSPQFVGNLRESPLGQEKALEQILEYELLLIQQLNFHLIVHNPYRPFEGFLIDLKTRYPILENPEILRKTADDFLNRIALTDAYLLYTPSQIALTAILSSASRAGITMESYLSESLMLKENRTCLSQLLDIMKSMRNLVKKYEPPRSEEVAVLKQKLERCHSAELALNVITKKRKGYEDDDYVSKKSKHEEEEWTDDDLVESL
Sequence of CDK7/cyclinH/MAT1 complex (P51948 whole entry partner, species assumed): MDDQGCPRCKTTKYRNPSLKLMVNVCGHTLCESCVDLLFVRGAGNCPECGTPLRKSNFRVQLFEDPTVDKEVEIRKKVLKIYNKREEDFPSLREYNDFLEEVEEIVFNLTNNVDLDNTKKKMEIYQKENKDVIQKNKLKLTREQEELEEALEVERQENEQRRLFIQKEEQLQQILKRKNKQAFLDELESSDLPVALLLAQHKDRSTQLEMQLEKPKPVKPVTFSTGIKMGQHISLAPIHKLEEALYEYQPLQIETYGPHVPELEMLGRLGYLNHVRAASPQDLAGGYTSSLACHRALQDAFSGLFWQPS
Experimental: (§1) CDK12/CyclinK was diluted in an assay buffer (80 mM MES PH 6.5, 0.01% Tween 20, 50 ug/mL BSA, 10 mM MgCl2) to afford a corresponding enzyme solution with the 2.4 concentration. A compound was dissolved in dimethyl sulfoxide (DMSO) at a concentration of 10 mM. […] 2 ul of a test compound solution was mixed with 5 ul of the enzyme solution; after incubation for 10 min, 5 ul of the polypeptide substrate and ATP mixed solution was added; incubation was carried out for 180 min at 27° C.; and then, the reaction was terminated by adding 4 uL of EDTA with a concentration of 120 mM to each sample. […] A CDK9/cyclinT1 complex (8 nM) and a “5-FAM-CDK9tide” peptide substrate (2 IM, synthetic fluorophore-labeled peptide with the following sequence: 5-FAM-GSRTPMY-NH2, wherein 5-FAM was as defined above and NH2 represented C-terminal amide) were used for a CDK9 inhibition assay. […] A CDK2/cyclinE1 complex (0.5 nM) and “5-FAM-CDK7tide” (2 μM) as defined above were used for CDK2 inhibition assay.
(§2) A reaction mixture was analyzed on Caliper EZ Reader II by electrophoretic separation of a fluorogenic substrate and a phosphorylated product. Data were calculated by using GraphPad Prism version 6.0, and IC50 values were adjusted and obtained by using a nonlinear regression model of a dose response curve.

[2] = biological target: T1, CDK12 (aa686-1082)/cyclinK complex (Homo sapiens, UniProt Q9NYV4); experiment: In-vitro enzymatic inhibitory activity testing, CDK12 inhibition assay (Caliper EZ Reader II); conditions: 180 min at 27° C.
T1 construct: A CDK12 (aa686-1082)/cyclinK complex (50 nM)
T1 sequence (Q9NYV4 686-1082, species assumed): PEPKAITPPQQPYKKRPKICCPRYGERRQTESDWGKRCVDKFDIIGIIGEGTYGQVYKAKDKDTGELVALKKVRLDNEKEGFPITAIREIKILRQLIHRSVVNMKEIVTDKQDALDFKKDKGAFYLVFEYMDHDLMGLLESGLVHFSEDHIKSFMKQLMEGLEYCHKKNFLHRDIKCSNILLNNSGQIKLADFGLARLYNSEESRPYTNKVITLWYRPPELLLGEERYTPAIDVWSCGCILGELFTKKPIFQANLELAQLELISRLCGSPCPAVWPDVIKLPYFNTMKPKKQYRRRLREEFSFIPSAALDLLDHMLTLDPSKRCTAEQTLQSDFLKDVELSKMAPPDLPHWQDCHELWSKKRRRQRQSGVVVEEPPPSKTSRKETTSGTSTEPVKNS
T1 sequence (O75909 whole entry partner, species assumed, the tested form may be a part): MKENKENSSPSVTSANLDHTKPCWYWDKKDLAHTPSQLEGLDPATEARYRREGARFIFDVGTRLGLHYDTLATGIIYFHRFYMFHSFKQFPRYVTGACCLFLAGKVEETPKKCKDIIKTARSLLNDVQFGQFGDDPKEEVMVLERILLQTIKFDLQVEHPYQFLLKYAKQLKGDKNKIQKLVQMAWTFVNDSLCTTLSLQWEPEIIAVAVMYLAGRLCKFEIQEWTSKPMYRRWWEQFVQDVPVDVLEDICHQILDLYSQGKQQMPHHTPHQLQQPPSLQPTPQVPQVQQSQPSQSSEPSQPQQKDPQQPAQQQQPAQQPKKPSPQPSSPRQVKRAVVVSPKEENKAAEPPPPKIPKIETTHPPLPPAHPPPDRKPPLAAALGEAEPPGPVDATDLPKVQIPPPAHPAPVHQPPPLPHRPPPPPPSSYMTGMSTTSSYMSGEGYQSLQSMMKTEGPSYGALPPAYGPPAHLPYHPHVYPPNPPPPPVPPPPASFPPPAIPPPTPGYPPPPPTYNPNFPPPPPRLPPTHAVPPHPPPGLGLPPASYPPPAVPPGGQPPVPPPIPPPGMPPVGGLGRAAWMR
Experimental: An assay was carried out in a U-bottom 384-well plate (coming, 4512#), and the reaction temperature was 27° C. CDK7/CyclinH was diluted in an assay buffer (20 mM MES PH 6.75, 0.01% Tween 20, 50 ug/mL BSA, 6 mM MgCl2) to afford a corresponding enzyme solution with the 2.4× concentration. CDK2/CyclinE1 was diluted in an assay buffer (20 mM MES PH 6.75, 0.01% Tween 20, 50 ug/mL BSA, 6 mM MgCl2) to afford a corresponding enzyme solution with the 2.4× concentration. CDK9/CyclinT1 was diluted in an assay buffer (20 mM MES PH 6.75, 0.01% Tween 20, 50 ug/mL BSA, 10 mM MgCl2) to afford a corresponding enzyme solution with the 2.4× concentration. CDK12/CyclinK was diluted in an assay buffer (80 mM MES PH 6.5, 0.01% Tween 20, 50 ug/mL BSA, 10 mM MgCl2) to afford a corresponding enzyme solution with the 2.4 concentration. A compound was dissolved in dimethyl sulfoxide (DMSO) at a concentration of 10 mM. During use, the compound was diluted with DMSO into 10 concentration gradients from 25 nM to 500 uM, and respectively diluted by 8.3 folds in the assay buffer to afford a compound solution with a 6× concentration. A polypeptide substrate and ATP were diluted in the assay buffer to afford a polypeptide substrate and ATP mixed solution with a 2.4× concentration. 2 ul of a test compound solution was mixed with 5 ul of the enzyme solution; after incubation for 10 min, 5 ul of the polypeptide substrate and ATP mixed solution was added; incubation was carried out for 180 min at 27° C.; and then, the reaction was terminated by adding 4 uL of EDTA with a concentration of 120 mM to each sample. […]. Specifically, a CDK7/cyclinH/MAT1 complex (6 nM) and a “5-FAMCD K 7 tide” peptide substrate (2 μM, synthetic fluorophore-labeled peptide with the following sequence: 5-FAM-[…], wherein “5-FAM” refers to 5-carboxyfluorescein) were used for a CDK7 inhibition assay. A CDK9/cyclinT1 complex (8 nM) and a “5-FAM-CDK9tide” peptide substrate (2 IM, synthetic fluorophore-labeled peptide with the following sequence: 5-FAM-GSRTPMY-NH2, wherein 5-FAM was as defined above and NH2 represented C-terminal amide) were used for a CDK9 inhibition assay. A CDK12 (aa686-1082)/cyclinK complex (50 nM) and “5-FAM-CDK9tide” (2 μM) as defined above were used for a CDK12 inhibition assay. A CDK2/cyclinE1 complex (0.5 nM) and “5-FAM-CDK7tide” (2 μM) as defined above were used for CDK2 inhibition assay.
as §2

CDK9/cyclinT1 complex = CDK9/cyclinT1 complex (Homo sapiens, UniProt P50750); experiment: In-vitro enzymatic inhibitory activity testing, CDK9 inhibition assay (Caliper EZ Reader II); conditions: CDK9/cyclinT1 8 nM, 180 min at 27° C.
Sequence of CDK9/cyclinT1 complex (P50750 whole entry, species assumed): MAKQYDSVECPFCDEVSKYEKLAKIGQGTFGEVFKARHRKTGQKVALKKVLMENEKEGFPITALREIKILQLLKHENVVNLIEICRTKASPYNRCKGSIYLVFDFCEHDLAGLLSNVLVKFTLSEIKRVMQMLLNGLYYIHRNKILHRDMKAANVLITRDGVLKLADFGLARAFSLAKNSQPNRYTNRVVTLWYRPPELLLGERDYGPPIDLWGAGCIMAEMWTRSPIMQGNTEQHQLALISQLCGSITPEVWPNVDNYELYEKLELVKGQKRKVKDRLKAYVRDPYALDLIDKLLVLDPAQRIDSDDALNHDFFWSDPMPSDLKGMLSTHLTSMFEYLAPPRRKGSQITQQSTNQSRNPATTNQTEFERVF
Sequence of CDK9/cyclinT1 complex (O60563 whole entry partner, species assumed): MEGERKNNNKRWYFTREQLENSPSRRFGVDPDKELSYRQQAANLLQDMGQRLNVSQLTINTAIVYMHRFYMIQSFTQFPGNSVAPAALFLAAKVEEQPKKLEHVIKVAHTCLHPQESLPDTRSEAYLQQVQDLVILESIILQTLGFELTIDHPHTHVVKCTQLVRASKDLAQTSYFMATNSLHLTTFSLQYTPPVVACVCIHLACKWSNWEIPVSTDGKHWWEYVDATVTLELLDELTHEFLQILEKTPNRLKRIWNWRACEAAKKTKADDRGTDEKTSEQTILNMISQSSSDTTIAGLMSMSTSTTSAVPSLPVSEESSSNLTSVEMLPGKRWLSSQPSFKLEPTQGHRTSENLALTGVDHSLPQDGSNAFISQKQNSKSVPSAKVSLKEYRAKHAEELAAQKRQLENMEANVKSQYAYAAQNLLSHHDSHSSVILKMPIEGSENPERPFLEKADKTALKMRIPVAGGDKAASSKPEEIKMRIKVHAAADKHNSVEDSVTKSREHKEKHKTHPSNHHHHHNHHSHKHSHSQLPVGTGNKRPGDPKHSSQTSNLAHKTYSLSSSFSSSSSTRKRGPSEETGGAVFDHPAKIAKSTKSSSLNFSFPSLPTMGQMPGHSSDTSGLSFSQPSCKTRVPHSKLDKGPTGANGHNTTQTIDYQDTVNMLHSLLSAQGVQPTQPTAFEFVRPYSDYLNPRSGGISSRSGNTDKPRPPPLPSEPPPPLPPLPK
Experimental: as §1, §2

CDK2/cyclinE1 complex = CDK2/cyclinE1 complex (Homo sapiens, UniProt P24941); experiment: In-vitro enzymatic inhibitory activity testing, CDK2 inhibition assay (Caliper EZ Reader II); conditions: CDK2/cyclinE1 0.5 nM, 180 min at 27° C.
Experimental: CDK12/CyclinK was diluted in an assay buffer (80 mM MES PH 6.5, 0.01% Tween 20, 50 ug/mL BSA, 10 mM MgCl2) to afford a corresponding enzyme solution with the 2.4 concentration. […] A CDK9/cyclinT1 complex (8 nM) and a “5-FAM-CDK9tide” peptide substrate (2 IM, synthetic fluorophore-labeled peptide with the following sequence: 5-FAM-GSRTPMY-NH2, wherein 5-FAM was as defined above and NH2 represented C-terminal amide) were used for a CDK9 inhibition assay. […] A CDK2/cyclinE1 complex (0.5 nM) and “5-FAM-CDK7tide” (2 μM) as defined above were used for CDK2 inhibition assay.
as §2

[3] = CDK12/cyclinK 50 nM, read-out: CDK12 IC50

SMILES	IC50 [1] [µM]	IC50 [2, 3] [µM]	IC50 (CDK9/cyclinT1 complex) [µM]	IC50 (CDK2/cyclinE1 complex) [µM]	IC50 ([2]; CDK12 IC50, CDK12/cyclinK 50 nM) [µM]
CP(C)(=O)c1cccc2c(-c3nc(NC4CC(F)(F)CC4O)ncc3C(F)(F)F)c[nH]c12 (single isomer, unassigned) [Compound 190]	0.02 to 0.2				
FC(F)(F)c1cnc(NC2CCC3(CCNCC3)C2)nc1-c1c[nH]c2nc(N3CCOCC3)ccc12 (stereo not shown) [Compound 42, N-(4-(6-morpholinyl-1H-pyrrolo[2,3-b]pyridin-3-yl)-5-(trifluoromethyl)pyrimidin-2-yl)-8-azaspiro[4.5]decan-2-amine]	0.02 to 0.2	5 to 50	5 to 50	5 to 50	
C[C@@H](CO)Nc1ncc(C(N)=O)c(-c2c[nH]c3c(P(C)(C)=O)cccc23)n1 [Compound 180, (S)-4-(7-(dimethylphosphoryl)-1H-indole-3-yl)-2-((1-hydroxypropan-2-yl)amino)pyrimidine-5-carboxamide]	5 to 50	> 50	> 50	> 50	
CN(C)CC1CCCC1Nc1ncc(C(F)(F)F)c(-c2c[nH]c3c(P(C)(C)=O)cccc23)n1 (single isomer, unassigned) [Compound 136]	0.02 to 0.2	> 50	> 50	> 50	
C[C@@H](CO)Nc1ncc(C(F)(F)F)c(-c2n[nH]c3c(P(C)(C)=O)cccc23)n1 [Compound 193, (S)-(3-(2-((1-hydroxypropan-2-yl)amino)-5-(trifluoromethyl)pyrimidin-4-yl)-1H-indazol-7-yl)dimethylphosphine oxide]	0.02 to 0.2				
CN[C@@H]1C[C@H]2O[C@@](C)([C@@H]1OC)n1c3ccccc3c3c4c(c5c6ccccc6n2c5c31)C(=O)NC4 [Staurosporine, staurosporine, reference compound]					0.2 to 5
CP(C)(=O)c1cccc2c(-c3nc(NC4CC(F)(F)CC4O)ncc3C(F)(F)F)c[nH]c12 (single isomer, unassigned) [Compound 192]	0.02 to 0.2			5 to 50	
CP(C)(=O)c1cccc2c(-c3nc(N[C@@H](CO)C4CCC4)ncc3C(F)(F)F)c[nH]c12 [Compound 113, (R)-(3-(2-((1-cyclobutyl-2-hydroxyethyl)amino)-5-(trifluoromethyl)pyrimidin-4-yl)-1H-indole-7-yl)dimethylphosphine oxide]	0.02 to 0.2	> 50	> 50	5 to 50	
CP(C)(=O)c1cccc2c(-c3nc(NC4CC(F)(F)CC4O)ncc3C(F)(F)F)c[nH]c12 (single isomer, unassigned) [Compound 189]	0.02 to 0.2				
CP(C)(=O)c1cccc2c(-c3nc(NCC4(O)CCCCCC4)ncc3C(F)(F)F)c[nH]c12 [Compound 152]	0.02 to 0.2				
CN(C)C[C@@H]1CCCC1Nc1ncc(C(F)(F)F)c(-c2c[nH]c3c(P(C)(C)=O)cccc23)n1 (stereo in doubt) [Compound 133, (3-(2-((cis-2-((dimethylamino)methyl)cyclopentyl)amino)-5-(trifluoromethyl)pyrimidin-4-yl)-1H-indole-7-yl)dimethylphosphine oxide]	< 0.02				
CN(C)C[C@H]1CCCC1Nc1ncc(C(F)(F)F)c(-c2c[nH]c3c(P(C)(C)=O)cccc23)n1 (stereo in doubt) [Compound 134, (3-(2-((trans-2-((dimethylamino)methyl)cyclopentyl)amino)-5-(trifluoromethyl)pyrimidin-4-yl)-1H-indole-7-yl)dimethylphosphine oxide]	< 0.02				
CC1([C@@H](CO)Nc2ncc(C(F)(F)F)c(-c3c[nH]c4c(P(C)(C)=O)cccc34)n2)CC1 [Compound 112, (S)-(3-(2-((2-hydroxy-1-(1-methylcyclopropyl)ethyl)amino)-5-(trifluoromethyl)pyrimidin-4-yl)-1H-indole-7-yl)dimethylphosphine oxide]	0.02 to 0.2	> 50	> 50	5 to 50	
CCCC[C@H](CO)Nc1ncc(C(F)(F)F)c(-c2c[nH]c3c(P(C)(C)=O)cccc23)n1 [Compound 170, (R)-(3-(2-((1-hydroxyhexan-2-yl)amino)-5-(trifluoromethyl)pyrimidin-4-yl)-1H-indole-7-yl)dimethylphosphine oxide]	0.02 to 0.2				
CP(C)(=O)c1cccc2c(-c3nc(NC4CCC[C@@H]4CN)ncc3C(F)(F)F)c[nH]c12 (stereo in doubt) [Compound 132, (3-(2-((trans-2-(aminomethyl)cyclopentyl)amino)-5-(trifluoromethyl)pyrimidin-4-yl)-1H-indole-7-yl)dimethylphosphine oxide]	< 0.02				
C[C@@H](CO)Nc1ncc(C(F)(F)F)c(-c2c[nH]c3nc(C4CCCCO4)ccc23)n1 (single isomer, unassigned) [Compound 183]	0.02 to 0.2				
CP(C)(=O)c1cccc2c(-c3nc(NC4CCC[C@H]4CN)ncc3C(F)(F)F)c[nH]c12 (stereo in doubt) [Compound 131, (3-(2-((cis-2-(aminomethyl)cyclopentyl)amino)-5-(trifluoromethyl)pyrimidin-4-yl)-1H-indole-7-yl)dimethylphosphine oxide]	< 0.02				
CP(C)(=O)c1cccc2c(-c3nc(N[C@H](CO)C4CCCCC4)ncc3C(F)(F)F)c[nH]c12 [Compound 169, (S)-(3-(2-((1-cyclohexyl-2-hydroxyethyl)amino)-5-(trifluoromethyl)pyrimidin-4-yl)-1H-indole-7-yl)dimethylphosphine oxide]	0.02 to 0.2				
C[C@@H](CO)Nc1ncc(C(F)(F)F)c(-c2c[nH]c3nc(C4CCCCO4)ccc23)n1 (single isomer, unassigned) [Compound 184]	0.02 to 0.2				
CP(C)(=O)c1cccc2c(-c3nc(N[C@@H]4CC(F)(F)C[C@@H]4O)ncc3C(F)(F)F)c[nH]c12 (relative stereo) [Compound 187, (3-(2-(cis-4,4-difluoro-2-hydroxycyclopentylamino)-5-(trifluoromethyl)pyrimidin-4-yl)-1H-indole-7-yl)dimethylphosphine oxide]	0.02 to 0.2				
CP(C)(=O)c1cccc2c(-c3nc(N[C@@H]4CC(F)(F)C[C@H]4O)ncc3C(F)(F)F)c[nH]c12 (relative stereo) [Compound 188, (3-(2-(trans-4,4-difluoro-2-hydroxycyclopentylamino)-5-(trifluoromethyl)pyrimidin-4-yl)-1H-indole-7-yl)dimethylphosphine oxide]	< 0.02				
